Assays:
[1] = Monkey PK Study; format: in vivo; conditions: cynomolgus monkey; for MRT / clearance: male, plasma, nominal 1 mg/kg 60-minute intravenous infusion, cassette; for MRT: read-out: Monkey Pharmacokinetics MRT; for clearance: read-out: Monkey Pharmacokinetics Total Clearance
Experimental: All studies were conducted after review by the GSK Institutional Animal Care and Use Committee and in accordance with the GSK Policy on the Care, Welfare and Treatment of Laboratory Animals. A pre-study health examination that included a physical exam and complete blood count was performed on the animals prior to use on study. A catheter was temporarily placed in a cephalic or saphenous vein for sample collection on the study day. The animals were fasted overnight prior to dosing; food provided after the 4-hour blood sample was collected. The intravenous and oral solution pharmacokinetic studies were carried out using a non-crossover design; a total of four male cynomolgus monkeys were used, two per route of administration.
(§1) The compounds used in this study were the compound of Example 1, herein, and Compound A (the compound of Example 1 of WO 2018/109646).
The dose for intravenous administration was prepared as a cassette of up to five test compounds in 20% Cavitron™ and 5% DMSO. The intravenous dose formulation was filtered through a 0.22-micron polytetrafluoroethylene (PTFE) filter prior to administration. The dose for oral solution administration was prepared as a cassette of up to five compounds in 6% Cavitron™ and 5% DMSO and was filtered through a 0.22-micron VWR PTFE filter prior to administration.
Each animal received a nominal dose of 1 mg/kg/compound (4 mL/kg dose volume) either as a 60-minute intravenous infusion or as an oral gavage. Blood samples (approximately 0.25 mL each) were collected from a cephalic or saphenous vein. Blood samples from animals that received the intravenous dose were collected prior to dosing and at target times of 15, 30, 45, 60 (before termination of the infusion), 62, 65, 75, 90, 120, 180, 240, 360, 480, 600, and 1440 minutes following the initiation of the intravenous infusion. For animals that received the oral dose, blood samples were collected prior to dosing and at target times of 5, 15, 30, 45, 60, 90, 120, 180, 240, 360, 480, 600, and 1440 minutes following oral gavage. Plasma was isolated from blood by centrifugation and a 30 μL aliquot was transferred to a non-heparinized tube, quick frozen on solid carbon dioxide and stored at approximately −80° C. until analyzed by liquid chromatography/tandem mass spectroscopy (LC/MS/MS) for test compound concentration.
Pharmacokinetic parameters for all in vivo PK studies were calculated using non-compartmental methods with Phoenix WinNonlin version 6.1.0 or 8.1.0. All parameters were calculated using actual blood sampling times and actual dosages for each animal. The extrapolated area under the curve (AUC0-inf) was determined using unweighted linear regression analysis of at least three log transformed concentrations visually assessed to be on the linear portion of the terminal elimination slope. Oral solution bioavailability was calculated in a non-crossover fashion using the mean intravenous dose and AUC0-inf values from the two intravenously dosed animals for the monkey PK study and in a crossover fashion for the rat PK study.

[2] = Mouse PK Study; format: in vivo; conditions: male CD1 mice, 30 mg/kg oral suspension, blood
Experimental: All studies were conducted after review by the GSK Institutional Animal Care and Use Committee and in accordance with the GSK Policy on the Care, Welfare and Treatment of Laboratory Animals. The oral suspension pharmacokinetic study was carried out on a single study day; a total of three male CD1 mice were used.
as §1
The oral suspension dose was prepared in 1% aqueous methylcellulose. Each animal received a nominal dose of 30 mg/kg (10 mL/kg dose volume) as an oral gavage. Blood samples (approximately 0.025 mL each) were collected from a tail vein. Blood samples were collected prior to dosing and at target times of 15, 30, 60, 120, 240, 480, and 1440 minutes following oral gavage. A 25 μL aliquot was added to a non-heparinized tube containing 25 μL water and quick frozen on solid carbon dioxide and stored at approximately −80° C. until analyzed by liquid chromatography/tandem mass spectroscopy (LC/MS/MS) for test compound concentration.
Pharmacokinetic parameters for all in vivo PK studies were calculated using non-compartmental methods with Phoenix WinNonlin version 6.1.0 or 8.1.0. All parameters were calculated using actual blood sampling times and actual dosages for each animal. […]

[3] = Mouse Plasma Protein Binding Study; format: in vitro ADME; conditions: heparinized mouse plasma, pH 7.5, ultracentrifugation 37° C. 3 hours, read-out: Plasma Protein Binding, % bound (converted)
Experimental: Stock solutions of the compound of Example 1, herein, and Compound A (the compound of Example 1 of WO 2018/109646), were prepared in dimethyl sulfoxide (DMSO) at a concentration of 1 mg/mL. Incubation mixtures were prepared by diluting the stock solution into heparinized mouse plasma to a concentration of 2000 ng/mL. The final concentration of DMSO was 0.2%. The thawed plasma was centrifuged to remove any debris. If necessary, the pH of the plasma sample was adjusted to approximately 7.5 with 1% aqueous phosphoric acid prior to use. Incubation mixtures were prepared. Triplicate 10 μL aliquots of each incubation mixture were collected and analyzed to verify initial compound concentration. Four aliquots of each incubation mixture were placed into separate polyallomer ultracentrifuge tubes. The incubation mixtures were centrifuged in a Beckman Type 42.2 Ti rotor at 42,000 rpm (214,361×g) at 37° C. for 3 hours with maximum acceleration and deceleration. […] The samples were quick frozen on solid carbon dioxide and stored at approximately −80° C. until analyzed by liquid chromatography/tandem mass spectroscopy (LC/MS/MS) for test compound concentration. Total recovery of compound from the ultracentrifugation tubes was calculated with the following formula: […]
Percent unbound (Fu) by ultracentrifugation was calculated with the following formula: […]

Question: With `CC[C@@H]1CN(Cc2cc([C@@H](CC(=O)O)c3ccc4c(nnn4C)c3C)ccc2C)Cc2ncccc2O1` [Compound A, reference compound] as the compound, how does the MRT [1] read?
Answer: The MRT was 1.6 h.

Question: And the clearance [1]?
Answer: The clearance was 10.9 mL/min/kg.

Question: And the “Mouse Pharmacokinetics Clearance/Bioavailability” value [2]?
Answer: Its value is 31 mL/min/kg.

Question: What about the fraction unbound at 3 h, 2000 ng/mL [3] of the same compound?
Answer: The fraction unbound at 3 h, 2000 ng/mL was 0.003.

Question: For `CC[C@@H]1CN(Cc2cc([C@@H](CC(=O)O)c3ccc4c(nnn4C)c3C)ccc2C)Cc2nc(O)ccc2O1` [Example 1, (R)-3-(1,4-dimethyl-1H-benzo[d][1,2,3]triazol-5-yl)-3-(3-(((R)-2-ethyl-7-hydroxy-2,3-dihydropyrido[2,3-f][1,4]oxazepin-4(5H)-yl)methyl)-4-methylphenyl)propanoic acid], which “fold improvement in mean residence time (MRT) versus Compound A” value [1] is on record?
Answer: The value was roughly 11 fold.

Question: And the “fold reduction in total clearance (CL) versus Compound A” value [1]?
Answer: The value was roughly 27 fold.

Question: And the MRT [1]?
Answer: Its MRT is 18 h.

Question: And the clearance [1]?
Answer: Its clearance is 0.41 mL/min/kg.

Question: What about the “Mouse Pharmacokinetics Clearance/Bioavailability” value [2] of the same compound?
Answer: The value was 15.6 mL/min/kg.

Question: What about the fraction unbound at 3 h, 2000 ng/mL [3] of the same compound?
Answer: The fraction unbound at 3 h, 2000 ng/mL was 0.084.

— patent US11945826B2, “Hydroxypyridoxazepines as NRF2 activators” (GLAXOSMITHKLINE INTELLECTUAL PROPERTY DEVELOPMENT LIMITED, priority 2019, dated 2024)
